Data from patent EP0316212B1 (priority 1987, dated 1989).

Tests used:
[1] = test system: virus de la chorioméningite lymphocytaire (CML); test: organism not typed; assay type: cell-based; details: ajoutés après l'infection virale
[2] = test system: EMCV (Encephalomyocarditis Virus); test: microbe, parasite or virus in culture; assay type: cell-based
[3] = test system: virus de la chorioméningite lymphocytaire (CML); test: organism not typed; assay type: cell-based; details: préincubés avec les cellules L929
Cellules de rate = test: Proliferation of mouse spleen cells (3H-thymidine incorporation); assay type: cell-based, souris
From the text: (§1) Les anticorps utilisés sont des anticorps monoclonaux (AM) naturels (N5-12, N5-17, MO-1, 62-1, D-23) et proviennent d'hybridomes préparés par fusion des cellules de rate de souris n'ayant reçu aucune immunisation au préalable ni aucune stimulation mitogénique, avec le myélome de souris X63-Ag8. Les hybridomes TNP11 et TNP9 proviennent de fusion des cellules de rate de souris immunisées avec du Ficoll-TNP. Ils ont été maintenus en culture dans le milieu RPMI complet contenant 10% de sérum de veau foetal. Les hybridomes ont été injectés à des souris Balb/c préalablement traitées au pristane dans le but d'obtenir des ascites. Les AM ont été utilisés en tant que surnageants de culture ou en tant qu'ascites ou après isolement par chromatographie d'affinité sur une colonne de DNP-Sépharose. Ces anticorps ont été testés par test immunoenzymatique sur différents antigènes immobilisés sur des plaques de polystyrène et révélés par un anticorps anti-Ig de souris couplé à la β-galactosidase.
(§2) Le TNP a été couplé à la sérumalbumine bovine (BSA) par la méthode de Little & Eisen : 1ml de BSA à 20mg/ml dans le tampon carbonate-bicarbonate, 0,1M, pH 9,5, est ajouté à 1ml d'une solution d'acide trinitrobenzène sulfonique à 2 mg/ml dans le même tampon. La réaction est arrêtée après 30 à 120 minutes selon la substitution voulue par élimination de l'excès de réactifs sur échangeur d'ions (Dowex 1 x 4) puis dialyse. Des préparations de BSA substituée avec soit 14 ou 30 molécules de TNP par molécule de BSA (TNP₁₄-BSA ou TNP₃₀-BSA) ont été utilisées.
(§3) Le DNP-Glycine (DNP-Gly) et le DNP-Lysine (DNP-Lys) proviennent des Laboratoires Sigma et sont solubilisés directement dans le milieu de culture.
(§4) Les cellules proviennent de rate ou de thymus de souris. Les souris sont tuées par dislocation cervicale et leur rate ou leur thymus prélevé stérilement sont déposés dans du milieu RPMI. Les cellules sont dissociées, lavées une fois avec du milieu puis les globules rouges sont lysés au chlorure d'ammonium (0,9%) pendant 1 minute à froid puis les cellules sont relavées dans le milieu complet.
(§5) Le milieu de culture utilisé est du RPMI 1640 contenant du sérum de veau foetal (5%), du pyruvate de sodium (1mM), de la L-glutamine (1mM), du 2-mercaptoethanol (0,05 mM), de la pénicilline (100»g/ml) et de la streptomycine (50»g/ml).
(§6) 2x10⁵ cellules de chaque population cellulaire ou 4x10⁵ de cellules de rate non fractionnées sont distribuées sous un volume final de 200»l dans des boîtes de culture de 96 puits à fond plat en présence ou non des différents stimulateurs (ou mitogènes)(40»g/ml de lipopolysaccharide W Salmonella typhosa 2»g/ml de concanavaline A, ou des surnageants de culture contenant les anticorps monoclonaux à différentes dilutions ou une solution de TNP-BSA à des concentrations finales allant de 200ng à 200»g/ml). Les cultures sont effectuées pendant 48 à 96 heures à 37°C dans une atmosphère de 5% de CO2.
Six à huit heures avant la fin de la culture, 100»l de surnageant sont prélevés de chaque puits de culture afin d'être testés quant à leur contenu en anticorps. 10»l d'une solution de ³H-thymidine (activité spécifique = […]) à 50 »Ci/ml sont ajoutés à la culture qui est ensuite poursuivie. Les cellules de chaque puits sont collectées sur du papier filtre à l'aide d'un collecteur automatique et, après sèchage, les filtres sont comptés dans un liquide scintillant.

Cellules T = test: Proliferation of mouse T cells (3H-thymidine incorporation); assay type: cell-based, souris
From the text: as §1, §2, §3, §4
(§7) Les sous-populations de cellules B ou T sont ensuite séparées comme suit : • Sous-population T : les cellules T sont obtenues à partir de la population de cellules de la rate par élimination des cellules portant des Ig à leur surface (sous-population B) sur des anticorps anti-Ig de souris immobilisés soit sur des billes magnétiques (Magnogel)® soit sur des boites de Pétri. • Sous-population B : les cellules B sont obtenues après détachement mécanique des supports dur lesquels elles étaient fixées par l'intermédiaire des anticorps anti-Ig (après l'isolement des cellules T), ou après élimination de la sous-population des cellules T de la population totale des cellules de rate par un traitement avec un anticorps anti-cellules T suivi de complément de cobaye. • Thymocytes : les thymocytes sont dissociés dans le RPMI et les cellules isolées sont lavées dans le milieu complet avant d'être mises en culture.
as §5, §6
(§8) Six à huit heures avant la fin de la culture, 100»l de surnageant sont prélevés de chaque puits de culture afin d'être testés quant à leur contenu en anticorps. […]

Cellules B = test: Proliferation of mouse B cells (3H-thymidine incorporation); assay type: cell-based, souris
From the text: as §1, §2, §3, §4, §7, §5, §6, §8

[4] = 12 (µg/ml), LPS* (mitogène ajouté après 48 heures)
[5] = 12 (µg/ml), conA* (mitogène ajouté après 48 heures)
[6] = 50 (µg/ml), LPS* (mitogène ajouté après 48 heures)
[7] = 50 (µg/ml), conA* (mitogène ajouté après 48 heures)

TNP-BSA
% Inhibition ([1]; 0.5 mg/ml): 0%
% Inhibition ([1]; 1mg/ml): 17%
% Inhibition ([2]; 0,03 mg/ml): 0%
% Inhibition ([2]; 0,5 mg/ml): 8%
% Inhibition ([2]; 0,06 mg/ml): 0%
% Inhibition ([2]; 0,12 mg/ml): 0%
% Inhibition ([2]; 0,25 mg/ml): 0%
% Inhibition ([2]; 1,0 mg/ml): 4%
% Inhibition ([2]; 2,0 mg/ml): 14%
% Inhibition ([3]; 0.12 mg/ml): 0%
% Inhibition ([3]; 0.25 mg/ml): 22%
% Inhibition ([3]; 0.5 mg/ml): 48%
% Inhibition ([3]; 1 mg/ml): 63%
pourcentage d'augmentation (+) ou d'inhibition (-) de la prolifération (Cellules de rate; 200µg/ml, LPS* (mitogène ajouté après 48 heures avec le dérivé NP)): +30%
pourcentage d'augmentation (+) ou d'inhibition (-) de la prolifération (Cellules de rate; 200µg/ml, M (milieu seul)): +50%
pourcentage d'augmentation (+) ou d'inhibition (-) de la prolifération (Cellules de rate; 200µg/ml, conA* (mitogène ajouté après 48 heures avec le dérivé NP)): +46%
pourcentage d'augmentation (+) ou d'inhibition (-) de la prolifération (Cellules de rate; [4]): 0%
pourcentage d'augmentation (+) ou d'inhibition (-) de la prolifération (Cellules de rate; 12 (µg/ml), M (milieu seul)): +10%
pourcentage d'augmentation (+) ou d'inhibition (-) de la prolifération (Cellules de rate; [5]): +28%
pourcentage d'augmentation (+) ou d'inhibition (-) de la prolifération (Cellules de rate; [6]): +20%
pourcentage d'augmentation (+) ou d'inhibition (-) de la prolifération (Cellules de rate; 50 (µg/ml), M (milieu seul)): +30%
pourcentage d'augmentation (+) ou d'inhibition (-) de la prolifération (Cellules de rate; [7]): +30%
pourcentage d'augmentation (+) ou d'inhibition (-) de la prolifération (Cellules T; 0,7 (µg/ml), M (milieu seul)): 0%
pourcentage d'augmentation (+) ou d'inhibition (-) de la prolifération (Cellules T; 0,7 (µg/ml), conA* (mitogène ajouté après 48 heures)): -50%
pourcentage d'augmentation (+) ou d'inhibition (-) de la prolifération (Cellules T; 200µg/ml, M (milieu seul)): +30%
pourcentage d'augmentation (+) ou d'inhibition (-) de la prolifération (Cellules T; 200µg/ml, conA* (mitogène ajouté après 48 heures)): -50%
pourcentage d'augmentation (+) ou d'inhibition (-) de la prolifération (Cellules T; 3 (µg/ml), M (milieu seul)): 0%
pourcentage d'augmentation (+) ou d'inhibition (-) de la prolifération (Cellules T; 3 (µg/ml), conA* (mitogène ajouté après 48 heures)): -40%
pourcentage d'augmentation (+) ou d'inhibition (-) de la prolifération (Cellules T; 12 (µg/ml), M (milieu seul)): +20%
pourcentage d'augmentation (+) ou d'inhibition (-) de la prolifération (Cellules T; [5]): -20%
pourcentage d'augmentation (+) ou d'inhibition (-) de la prolifération (Cellules T; 50 (µg/ml), M (milieu seul)): +18%
pourcentage d'augmentation (+) ou d'inhibition (-) de la prolifération (Cellules T; [7]): -25%
pourcentage d'augmentation (+) ou d'inhibition (-) de la prolifération (Cellules B; 200µg/ml, LPS* (mitogène ajouté après 48 heures)): +18%
pourcentage d'augmentation (+) ou d'inhibition (-) de la prolifération (Cellules B; 200µg/ml, M (milieu seul)): +100%
pourcentage d'augmentation (+) ou d'inhibition (-) de la prolifération (Cellules B; 3 (µg/ml), LPS* (mitogène ajouté après 48 heures)): 0%
pourcentage d'augmentation (+) ou d'inhibition (-) de la prolifération (Cellules B; 3 (µg/ml), M (milieu seul)): 0%
pourcentage d'augmentation (+) ou d'inhibition (-) de la prolifération (Cellules B; [4]): 0%
pourcentage d'augmentation (+) ou d'inhibition (-) de la prolifération (Cellules B; 12 (µg/ml), M (milieu seul)): 0%
pourcentage d'augmentation (+) ou d'inhibition (-) de la prolifération (Cellules B; [6]): 0%
pourcentage d'augmentation (+) ou d'inhibition (-) de la prolifération (Cellules B; 50 (µg/ml), M (milieu seul)): +50%
